Reference: PubChem BioAssay (NCI)
“And” between values parts separate entries of the source, which are not always exact repeats. Identical values can stand only once.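 Each compound was tested at five concentrations against cells in 96-well plates for 48 hours. GI50 marks 50% less growth. At the TGI there is no net growth.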

Columns and labels:
Assay in all cases: DTP human tumour cell line panel, 48 h
[1] = tested on: NCI-H23 lung
[2] = tested on: SNB-75 CNS
[3] = tested on: TK-10 renal
[4] = tested on: UACC-62 melanoma
[5] = tested on: SK-MEL-5 melanoma
[6] = tested on: T-47D breast
[7] = tested on: OVCAR-5 ovarian
[8] = tested on: A498 renal
[9] = tested on: RXF 393 renal
[10] = tested on: SK-OV-3 ovarian

| SMILES | GI50 [1] [µM] | TGI [1] | GI50 [2] [µM] | TGI [2] | GI50 [3] [µM] | TGI [3] | GI50 [4] [µM] | TGI [4] | GI50 [5] [µM] | TGI [5] | GI50 [6] [µM] | TGI [6] [µM] | GI50 [7] [µM] | TGI [7] | GI50 [8] [µM] | TGI [8] | GI50 [9] [µM] | TGI [9] | GI50 [10] [µM] | TGI [10] |
| --- | --- | --- | --- | --- | --- | --- | --- | --- | --- | --- | --- | --- | --- | --- | --- | --- | --- | --- | --- | --- |
| CCN(CC)CCCC(C)Nc1cnc(C(=O)Nc2ccc(Cl)c3cccnc23)cn1 (stereo unspecified) | 5.04 | 19.6 µM | 3.18 | 15.1 µM | 9.09 | 21.9 µM | 1.85 | 3.43 µM | 1.8 | 3.31 µM | 1.21 | 2.97 | 1.83 | 3.6 µM | 5.48 | 19.5 µM | 1.64 | 3.36 µM | 12.9 | 26 µM |
| O=C1CC(c2ccc(N3CCOCC3)cc2)(c2ccsc2)NC(=O)C1Sc1ccccc1Cl (stereo unspecified) | 65.5 | > 100 µM | 54.9 | > 100 µM | > 100 | > 100 µM | 53.1 | > 100 µM | 36.6 | > 100 µM | 85.9 | > 100 | > 100 | > 100 µM | 10.4 | > 100 µM | 5.65 | > 100 µM | > 100 | > 100 µM |
| CN(C)c1ccc(N2Cc3ccccc3OC3=C2C(=O)c2c(O)ccc(O)c2C3=O)cn1 | 0.277 | 0.927 µM | 0.769 | 6.93 µM | 0.348 | 0.908 µM | 0.211 | 0.638 µM | 0.722 | 2.01 µM | 0.258 | 1.27 | 0.51 | 1.56 µM | 2.15 | 5.8 µM | 0.152 | 0.318 µM | 3.05 | 11.6 µM |
| CC(C)(C)NC(C1=CC(C)(C)c2ccccc2C1=O)c1ccccc1 (stereo unspecified) | 1.49 | 3.17 µM | 1.02 | 2.57 µM | 1.75 | 3.39 µM | 1.3 | 2.82 µM | 1.52 | 2.84 µM | 1.12 | 2.55 | 1.82 | 3.78 µM | 1.87 | 6.37 µM | 1.22 | 2.53 µM | 3.04 | 12.1 µM |
| COC(=O)NC1C(C)OC(OC2C/C=C(/C)C3C=CC4C(OC5CC(OC6CC(O)C(OC7CC(O)C(OC)C(C)O7)C(C)O6)C(O)C(C)O5)C(C)CC(C)C4C3(C)/C(O)=C3\C(=O)OC4(CC(C)C(CO)=CC4/C=C\2C)C3=O)CC1(C)[N+](=O)[O-] (stereo unspecified) | 8.68 | 17.2 µM and 27.8 µM | 11 | 33.5 µM and 46.2 µM | 25.8 | 32.5 µM and 81.2 µM | 9.44 | 16.7 µM and 18.4 µM | 10.9 | 18.7 µM and 33.2 µM |  | 31.8 | 13.4 | 30.7 µM and 33.7 µM | 9.82 | 22.8 µM and 29.8 µM | 8.97 | 21.4 µM and 30.7 µM | 10.3 | 50 µM and 20.9 µM |
| CC[C@H](C)[C@H]1NC(=O)[C@@H](N[C@](C)(O)[C@@H](N)CC(C)C)[C@@H](C)OC(=O)[C@H](Cc2ccc(OC)cc2)N(C)C(=O)[C@@H]2CCCN2C(=O)[C@H](CC(C)C)NC(=O)[C@@H](C)C(=O)[C@H](C(C)C)OC(=O)C[C@@H]1O | 0.0122 | 0.146 µM | 0.0215 | 0.436 µM | 0.0397 | 0.557 µM | 0.0109 | 0.16 µM | 0.018 | 0.665 µM | 0.00897 | 0.301 | 0.0204 | 0.799 µM | 0.037 | 0.403 µM | 0.019 | 0.173 µM | 0.0191 | 1.19 µM |
| Cn1cncc1[C@@](N)(c1ccc(Cl)cc1)c1ccc2c(c1)c(-c1cccc(Cl)c1)cc(=O)n2C | 2.64 | 14.4 µM | 4.68 | 18.9 µM | 2.57 | 10.8 µM | 0.42 | 12.5 µM | 1.8 | 6.83 µM | 2.57 | 17.2 | 5.59 | 19.3 µM | 0.887 | 17.2 µM | 2.41 | 11.5 µM | 7.24 | 21.2 µM |
| C=C1C(=O)O[C@@H]2C[C@@]3(C)CCC[C@H](C)C3=C[C@H]12 |  | 17.5 µM |  | 13.4 µM |  | 9.35 µM |  | 19.8 µM |  | 17.9 µM |  | 9.36 |  | 31.4 µM |  | 24.9 µM |  | 18.8 µM |  | 40.4 µM |
| Oc1ccc2cc(Br)ccc2c1-c1c(O)ccc2cc(Br)ccc12 | 2.23 | 5.82 µM | 3.15 | 13.9 µM | 2.52 | 5.86 µM | 2.2 | 8.5 µM | 1.87 | 3.74 µM | 4.61 | 17.3 | 4.23 | 15.6 µM | 2.95 | 10.3 µM | 2.79 | 5.93 µM | 4.72 | 17.3 µM |
| Nc1nc(N)c(N=O)c(Nc2ccc(O)cc2)n1 |  | > 100 µM |  | > 67.7 µM |  | > 100 µM |  | > 100 µM |  | > 100 µM |  | > 96.1 |  | > 26.1 µM |  | > 85.1 µM |  | > 100 µM |  | 45.1 µM |
| O=C(Nc1ccccc1O)c1cccc(NC2=C(Cl)C(=O)N(Cc3ccccc3)C2=O)c1 | 3.44 | 9.38 µM | 13.5 | 33.1 µM | 4.69 | 13.4 µM | 2.33 | 6.79 µM | 6.66 | 14.4 µM | 8.06 | 28.6 | 13.4 | 27.7 µM | 14.2 | 27.7 µM | 1.89 | 5.28 µM | 12.8 | 31.5 µM |
| COc1cc2nc(-c3cnc(N(C)C)nc3)nc(NC3CCN(Cc4ccccc4)CC3)c2cc1OC | 1.69 | 4.11 µM | 1.43 | 2.86 µM | 1.63 | 3.08 µM | 1.73 | 3.29 µM | 1.58 | 2.95 µM | 1.81 | 4.14 | 1.78 | 3.46 µM | 1.57 | 2.94 µM | 1.63 | 3.49 µM | 1.7 | 3.08 µM |
| CC(=O)N1c2ccccc2C23CCN(C)CC4C(C)OCC(C4CC2=O)C13 (stereo unspecified) |  | > 100 µM |  | > 100 µM |  | > 100 µM |  | > 100 µM |  | > 100 µM |  | > 100 |  | > 100 µM |  | > 100 µM |  | > 100 µM |  | > 100 µM |
| C[C@@H]1CN(C(=O)c2ccc(NC(=O)c3cc(O[C@H](C)c4c(Cl)ccc(F)c4Cl)c(N)nn3)cc2)C[C@H](C)N1 | 3.17 | 20.6 µM | 2.8 | 11.1 µM | 11.5 | 23.6 µM | 1.7 | 5.24 µM | 1.55 | 3.44 µM | 4.51 | 20.5 | 2.76 | 17.6 µM | 1 | 5.33 µM | 1.93 | 5.29 µM | 11.1 | 23.1 µM |
| CCC(C)(C)C(=O)O[C@H]1C[C@@H](C)C=C2C=C[C@H](C)[C@H](CC[C@@H]3C[C@@H](O)CC(=O)O3)[C@H]21 | 1.79 | 15.3 µM and 3.55 µM |  | 5.37 µM and > 30 µM | 5.38 | 18.2 µM | 0.578 |  | 2.23 | 7.87 µM | 11.9 | 28.2 | 9.19 | 22.9 µM | 0.156 |  | 2.06 | 8.5 µM and 2.48 µM | 7.56 | 21 µM and > 30 µM |
